# Target: T1, Transcriptional coactivator YAP1 (Homo sapiens, UniProt P46937)
# Experiment: Inhibition of YAP in HEK293T cells incubated for 24 hrs by Promega Dual-Luciferase Reporter Assay
# T1 sequence (P46937 whole entry): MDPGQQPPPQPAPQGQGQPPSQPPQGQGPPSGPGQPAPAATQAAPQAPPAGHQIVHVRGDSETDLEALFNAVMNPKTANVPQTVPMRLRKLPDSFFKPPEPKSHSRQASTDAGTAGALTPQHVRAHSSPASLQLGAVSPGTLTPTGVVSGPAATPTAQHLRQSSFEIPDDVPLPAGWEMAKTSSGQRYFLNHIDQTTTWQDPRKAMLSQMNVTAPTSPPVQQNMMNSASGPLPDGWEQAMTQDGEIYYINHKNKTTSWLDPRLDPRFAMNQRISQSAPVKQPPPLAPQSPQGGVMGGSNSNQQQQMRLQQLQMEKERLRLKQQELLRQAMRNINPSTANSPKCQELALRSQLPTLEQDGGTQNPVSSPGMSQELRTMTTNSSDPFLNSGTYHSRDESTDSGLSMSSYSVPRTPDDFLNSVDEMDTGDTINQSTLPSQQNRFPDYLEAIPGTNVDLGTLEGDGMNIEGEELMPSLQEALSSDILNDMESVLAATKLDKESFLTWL
row,Compound,IC50 [nM]
1,N#CCNC(=O)c1ccc2c(Oc3ccc(C(F)(F)F)cc3)cccc2c1 [N-(cyanomethyl)-5-(4-(trifluoromethyl)phenoxy)-2-naphthamid],< 100
2,CS(=O)(=O)NC(=O)c1ccc2c(Oc3ccc(C(F)(F)F)cc3)cccc2c1 [N-(methylsulfonyl)-5-(4-(trifluoromethyl)phenoxy)-2-naphthamide],< 100
3,CC(C)NC(=O)c1ccc2c(Oc3cccc(Cl)c3)cccc2c1 [5-(3-chlorophenoxy)-N-isopropyl-2-naphthamide],< 100

# Target: T1, Transcriptional coactivator YAP1
# Experiment: Inhibition of YAP (unknown origin) incubated for 24 hrs by Promega Dual-Luciferase Reporter Assay
row,Compound,IC50 [nM]
1,CC(NC(=O)c1cc2nc(N(C)C)n(-c3ccc(Br)cc3)c2s1)c1ccccn1 (stereo unspecified),391
2,COC(=O)c1cc(S(N)(=O)=O)ccc1NC1CCCCC1,454
3,CNS(=O)(=O)c1ccc(Nc2ccc(C(F)(F)F)cc2)c(-c2cn(C)cn2)c1,1
